Patent US20130217760A1, “METHOD FOR ENHANCING THERAPEUTIC EFFECT OF ANTICANCER THERAPIES” (BOTAMEDI INC., priority 2012, published 2013)
Counter-ions that a name gives are not always drawn. Like-named read-outs stand apart in the source and are kept apart here.

How the values were obtained:
[1] = system: SKOV3 ovarian carcinoma cell line; test: Inhibition of cancer cell proliferation, MTT assay, SKOV3; assay type: cell-based; conditions: SKOV3, 24 hrs incubation
Procedure: (§1) Ovarian […] carcinoma cell lines (SKOV3, A2780) were incubated in minimum essential medium [MEM] supplemented with 10% FBS, 100 units/ml antibiotic antimycotic, and 2.2 g/L sodium bicarbonate at 37° C. for 24 hrs in 96-well plates. The ovarian carcinoma cell lines were seeded at a density of 1×10^4 cells/well into 96-well plates and allowed to adhere to the bottom during incubation for 24 hrs. […] The cells in each well were treated with […] of an MTT reagent (1 mg/ml) for 4 hrs in a dark condition. After the medium was aspirated, the MTT fromazan thus formed was dissolved in […] of DMSO, and absorbance was measured at 540 nm using spectrophotometer.

[2] = Dietary intake (anorexia) in SKOV3 tumor-bearing mice; assay type: in vivo, Balb/c nu/nu mice; conditions: for Diet Intake: Cisplatin group (cisplatin 3 mg/kg i.p.)
[3] = system: Ovarian carcinoma cells (SKOV3); test: Apoptosis by PI staining / FACS, co-treatment with Cisplatin; assay type: cell-based; conditions: Individual, 48 hrs
Procedure: Apoptotic effects were assessed using a PI staining method. Propidium iodide (PI) is a fluorescent molecule that can bind to DNA of dead cells to evaluate cell cycle and cell viability.
Ovarian carcinoma cells (SKOV3) were incubated at 37° C. for 24 hrs in minimum essential medium [MEM] supplemented with 10% FBS, 100 units/ml antibiotic antimycotic, and 2.2 g/L sodium bicarbonate in 96-well plates. The ovarian carcinoma cell line was seeded at a density of 1×10^4 cells/well into 96-well plates and allowed to adhere to the bottom during incubation for 24 hrs. […] Afterwards, the cells were washed with PBS, and detached with trypsin-EDTA, followed by centrifugation at 1,000 rpm for 10 min. The cells were fixed with 70% ethanol at 4° C. for 24 hrs. After removal of the ethanol, the cells were washed many times with PBS, suspended in PBS containing RNaseA, and reacted with a PI reagent for 10 min at room temperature in a dark condition.

[4] = system: ovarian carcinoma cell line SKOV3 tumors; test: SKOV3 ovarian carcinoma xenograft, tumor volume and weight; assay type: in vivo, Balb/c nu/nu mice
Procedure: The ovarian carcinoma cell line SKOV3 was detached from a culture dish using trypsin-EDTA, and diluted to a density of […] cells/150 in an RPMI medium supplemented with 10% FBS, followed by subcutaneous injection into the right flank of Balb/c nu/nu mice using a syringe. […] The control group was treated with PBS. During the experimental period, the tumor size, body weight and dietary intake of mice in each group was recorded three times per week.
After 4 weeks, the animals were sacrificed and blood was taken from the animals. Tumors were e.xcised from the animals and measured for size and weight.

[5] = system: A2780 ovarian carcinoma cell line; test: Inhibition of cancer cell proliferation, MTT assay, A2780; assay type: cell-based; conditions: A2780, 24 hrs incubation
Procedure: as §1

[6] = system: adriamycin-induced cardiomyopathy
Procedure: The composition of the present invention was examined for suppression effects against adriamycin-induced cardiomyopathy.
A total of 25 male mice (33±5 g, four-week-old) were divided into four groups: three test groups of seven, and one control group of four. Adriamycin (tradename: Doxorubicin Hydrochloride; Sigma-Aldrich, Co, LLC; St. Louis, Mo., USA) in distilled water was intraperitoneally injected at a dose of 1.25 mg/kg once a week for six weeks in the adriamycin group. The other two experimental groups, low-dose and high-dose group, were orally administered with composition 4 at a dose of 32 mg/kg and 64 mg/kg, respectively, everyday for one week, and then intraperitoneally injected with adriamycin in distilled water at a dose of 1.25 mg/kg once a week for six weeks. The control group of 4 mice was injected once a week for six weeks with physiological saline. During the experiment, the mice were given access to food and water ad libitum.
The mice were generally anesthetized before and after the six-week experiment, and subjected to two-dimensional echocardiography using a 15-MHz transducer to measure left ventricular end-diastolic dimension (LVEDD) and left ventricular end-systolic dimension (LVESD), left ventricular end-diastolic posterior wall thickness (PW), and left ventricular end-systolic posterior wall thickness (PW). From these measurements, relative wall thickness (RWT), fraction shortening (FS), and left ventricular ejection fraction (LVEF) were calculated. The echocardiographic data are expressed as mean value±SD of five or higher independent measurements.

[7] = Adriamycin Group, Week 0 (Baseline)

N.N.[Cl][Pt][Cl] [Cisplatin, cis-Diammineplatinum (II) dichloride]
IC50 SKOV3 [1]: 12.3 µg/mL | Diet Intake ([2]; Week 0): 4.8 gram | Diet Intake ([2]; Week 1): 4.6 gram | Diet Intake ([2]; Week 2): 4.0 gram | Diet Intake ([2]; Week 3): 3.7 gram | Diet Intake ([2]; Week 4): 4.1 gram | dietary intake compared to control group ([2]; during the experimental periods): decrease in dietary intake | Apoptosis (%) ([3]; Cisplatin 3 μM): 3.0% | Apoptosis (%) ([3]; Cisplatin 5 μM): 3.5% | tumor size compared to control ([4]; 4 weeks administration): slightly reduced | Tumor Weight after 4 Weeks ([4]; Cisplatin alone (3 mg/kg i.p.)): 1.7 gram | Tumor Volume ([4]; Cisplatin alone (3 mg/kg i.p.), Week 1): 100 mm3 | Tumor Volume ([4]; Cisplatin alone (3 mg/kg i.p.), Week 2): 134 mm3 | Tumor Volume ([4]; Cisplatin alone (3 mg/kg i.p.), Week 3): 144 mm3 | Tumor Volume ([4]; Cisplatin alone (3 mg/kg i.p.), Week 4): 162 mm3 | IC50 A2780 [5]: 6.01 µg/mL

COc1cccc2c1C(=O)c1c(O)c3c(c(O)c1C2=O)C[C@@](O)(C(=O)CO)C[C@@H]3O[C@H]1C[C@H](N)[C@H](O)[C@H](C)O1 [Adriamycin, Doxorubicin Hydrochloride]
LVEDD [6, 7]: 5.7 ± 0.2 mm | LVESD [6, 7]: 2.4 ± 0.3 mm | PW [6, 7]: 1.6 ± 0.2 mm | FS ([6]; Adriamycin Group, Week 6): 44.2 ± 3.2% | LVEF ([6]; Adriamycin Group, Week 6): 70.3 ± 0.3% | LVESD ([6]; Adriamycin Group, Week 6): 3.8 ± 0.3 mm | PW ([6]; Adriamycin Group, Week 6): 1.4 ± 0.3 mm | FS Δ(6 − 0) ([6]; Adriamycin Group, Δ(6 − 0)): 14.4 ± 1.5% | LVEDD Δ(6 − 0) ([6]; Adriamycin Group, Δ(6 − 0)): 1.1 ± 0.1 mm | LVEF Δ(6 − 0) ([6]; Adriamycin Group, Δ(6 − 0)): 15.2 ± 3.0% | LVESD Δ(6 − 0) ([6]; Adriamycin Group, Δ(6 − 0)): 1.4 ± 0.0 mm | PW Δ(6 − 0) ([6]; Adriamycin Group, Δ(6 − 0)): 0.2 ± 0.1 mm | cardiomyopathy after 6 weeks ([6]; echocardiography after 6 weeks of study): cardiomyopathy with significant decrease in left ventricular posterior wall thickness (PW) and in fractional shortening (FS)
